This is an account of results in patent US20160368992A1, “A METHOD OF INCREASING GIPCR SIGNALIZATION IN THE CELLS OF A SCOLIOTIC SUBJECT” (CHU SAINTE-JUSTINE, priority 2013, published 2016).

In assay [1] the test system is MOR, LPA1R, MT2R receptors and Gi1, Gi2, Gi3 proteins. Put plainly: Western blot and qPCR for expression of GPCRs and Gi protein isoforms in MC3T3-E1 cells. Format: cell-based. On the procedure: Thermo-Script™ reverse transcriptase (Invitrogen) was used to reverse transcribe mRNA into cDNA ([…] total concentration). Several dilutions were tested to choose the concentration that yielded the most efficient amplification. The human primers used were the following: […]
Each amplification was performed in duplicate using […] of diluted cDNA, […] of 3 mM primer solution and […] of 2× QuantiTect™ SYBR Green PCR Master Mix (QIAGEN Inc, Ontario, Canada). All reaction mixes were run on Mx3000P™ system from Stratagene (Agilent Technologies Company, La Jolla, Calif.) and analyzed with MxPro™ QPCR Software also from Stratagene. Relative quantification was calculated with the delta CT method using β-actin as the endogenous control.
Gi proteins isoforms expression levels were determined using Western blot technique. MC3T3-E1 cells were treated with PBS or rOPN 0.5 μg/ml overnight (R&D systems Inc., Minneapolis, USA). These cells were washed with cold PBS 1× then lysed in RIPA buffer (25 mM Tris.Hcl pH7.4, 150 mM NaCl, 1% NP-40, 1% sodium deoxycholate, 0.1% SDS) added with 5 mM NaVO4 and protease inhibitor cocktail (Roche molecular Biochemicals, Mannheim, Germany). Immunoblots were performed with primary antibodies directed specifically against Gi1, Gi2, Gi3, Gs, Phosphoserine, integrin β1 (Santa Cruz Biotechnology, Santa Cruz, Calif.), Mu opioid receptor (MOR) (abcam Toronto, ON, Canada), Lysophosphatidic acid receptor 1 (LPAR1) (assaybiotech Inc., USA), melatonin receptor 2 (MT2) and peroxidase-conjugated secondary antibody. […]
Given that the level of GPCRs is critical for their signaling, it was of interest to examine whether the defective GiPCR signaling induced by OPN is the consequence of a quantitative reduction of these receptors. For this purpose, MC3T3-E1 cells were treated with PBS or rOPN and the cell lysates were analyzed by Western blot for the expression of three different GPCRs; including mu-opioid (MOR), lysophosphatidic acid type 1 (LPA1R) and melatonin type 2 (MT2R) receptors. […]
On the technique in general: In western blotting, separated proteins are transferred to a membrane and probed.

The next assay relates to GsPCR signaling. In words: CDS response to GsPCR stimulation (isoproterenol, desmopressin) in MC3T3-E1 cells. In kind it is cell-based. An excerpt: Taken into account these considerations and having observed that genetic deletion of OPN inversely influenced response to Gi and Gs stimulation (FIG. 1), it was of interest to examine the effect of OPN on the functional and phosphorylation status of Gs protein and on its interaction with receptors. For this purpose, cells were subjected to isoproterenol and desmopressin in the presence of rOPN or PBS. As expected, response to isoproterenol was higher in rOPN than in PBS-treated cells.
Assuming that inhibition of Gi protein and phosphorylation of Gs protein are responsible for the increased GsPCR signaling associated with rOPN, the next experiments aimed to determine the contribution of each parameter. For this purpose, cells were treated with PTX to mimic disruption action of rOPN and compared to cells treated with rOPN alone or in combination with Src inhibitor (PP2) to prevent tyrosine phosphorylation. […] This modest difference was abolished by Src inhibitor (PP2). Similar observations were noted when cells were stimulated with desmopressin.

In a further assay the test system is GiPCR signaling. Put plainly: GiPCR signaling after LPA stimulation in osteoblasts of AIS patients (CD44 CT SNP) and healthy controls in the presence of rOPN. Format: cell-based, human. Particulars: same rOPN treatment. Here is the method: Next, the effect of the CT SNP on GiPCR signaling was assessed. Osteoblasts from severe AIS patients (who underwent surgery) carrying the CT SNP and osteoblasts from healthy controls with wild type CD44 (CC) were stimulated with LPA in the presence of recombinant OPN (rOPN). The GiPCR defective signaling effect in response to the same rOPN treatment was […] 50% more in mutated CD44 (CT) osteoblasts as compared to in wild type CD44 (CC) osteoblasts (FIG. 9 A). […] The CT mutation in CD44 thus increases the sensitivity of scoliotic patients to the damaging effects of OPN on GiPCR signaling and thereby contributes the more severe phenotype observed in these subjects.

For the substance “rOPN: exogenous recombinant osteopontin (R&D systems)”, in assay [1] (Western blot, rOPN vs PBS), the “level of MOR, LPA1R and MT2R receptors” value was “not modified”. In addition, the “quantity of Gi proteins (Gi1, Gi2, Gi3)” value in assay [1] (immunoblotting, relative to PBS-treated cells) was “no significant effect”. In addition, the “mRNA expression of Gi isoforms” value in assay [1] (qPCR, PBS- vs rOPN-treated cells) was “no significant difference”. Also, in the assay on GsPCR signaling (rOPN vs PBS-treated cells), the “response to isoproterenol (similar with desmopressin)” value was “higher”. For the same substance, the “greater responsiveness to isoproterenol stimulation than PTX-treated cells” value with GsPCR signaling (rOPN-treated vs PTX-treated cells) is given as 30%. Also, the “additional reduction of GiPCR signaling in mutated CD44 (CT) vs wild type CD44 (CC) osteoblasts” value in the assay with GiPCR signaling turned out to be 50%.
